In PubChem BioAssay (NCI):
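How tested: cells in 96-well plates exposed to compound for 48 hours at five concentrations. TGI denotes the concentration required for complete inhibition of growth.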

Experiments:
Assay in all cases: NCI-60 cell line screen, 48 h
[1] = test system: NCI/ADR-RES ovarian
[2] = test system: SK-MEL-28 melanoma
[3] = test system: OVCAR-5 ovarian
[4] = test system: MCF7 breast
[5] = test system: CAKI-1 renal
[6] = test system: HCC-2998 colon
[7] = test system: M14 melanoma
[8] = test system: HS 578T breast
[9] = test system: KM12 colon
[10] = test system: SF-295 CNS
[11] = test system: SW-620 colon
[12] = test system: HOP-92 NSCLC
[13] = test system: COLO 205 colon
[14] = test system: HL-60(TB) leukemia
[15] = test system: LOX IMVI melanoma
[16] = test system: T-47D breast
[17] = test system: SK-MEL-5 melanoma
[18] = test system: NCI-H226 lung
[19] = test system: CCRF-CEM leukemia
[20] = test system: UACC-62 melanoma
[21] = test system: A498 renal
[22] = test system: A549 NSCLC
[23] = test system: HCT-116 colon
[24] = test system: SNB-19 CNS
[25] = test system: NCI-H460 lung
[26] = test system: OVCAR-3 ovarian
[27] = test system: TK-10 renal
[28] = test system: DU-145 prostate
[29] = test system: RPMI-8226 leukemia
[30] = test system: HT29 colon
[31] = test system: OVCAR-4 ovarian
[32] = test system: EKVX NSCLC
[33] = test system: U251 CNS
[34] = test system: UACC-257 melanoma
[35] = test system: SR leukemia
[36] = test system: UO-31 renal
[37] = test system: NCI-H23 lung
[38] = test system: MOLT-4 leukemia
[39] = test system: RXF 393 renal
[40] = test system: MDA-MB-435
[41] = test system: 786-0 renal
[42] = test system: K-562 leukemia
[43] = test system: BT-549 breast
[44] = test system: SF-268 CNS
[45] = test system: OVCAR-8 ovarian
[46] = test system: IGROV1 ovarian
[47] = test system: MALME-3M melanoma
[48] = test system: MDA-N
[49] = test system: ACHN renal
[50] = test system: NCI-H522 lung
[51] = test system: SK-OV-3 ovarian
[52] = test system: MDA-MB-231 breast
[53] = test system: SK-MEL-2 melanoma
[54] = test system: HCT-15 colon
[55] = test system: SF-539 CNS
[56] = test system: HOP-62 NSCLC
[57] = test system: SNB-75 CNS
[58] = test system: PC-3 prostate
[59] = test system: SN12C renal

COc1ccc2nc3ccc(OC)cc3c(SCCO)c2c1
TGI [1]: > 80.3 µM | TGI [2]: > 100 µM | TGI [3]: > 100 µM | TGI [4]: > 62.3 µM | TGI [5]: > 100 µM | TGI [6]: > 100 µM | TGI [7]: > 100 µM | TGI [8]: > 100 µM | TGI [9]: > 63.8 µM | TGI [10]: > 100 µM | TGI [11]: > 100 µM | TGI [12]: > 100 µM | TGI [13]: > 64.3 µM | TGI [14]: 19.9 µM | TGI [15]: > 63 µM | TGI [16]: > 100 µM | TGI [17]: > 100 µM | TGI [18]: > 100 µM | TGI [19]: > 31.1 µM | TGI [20]: > 100 µM | TGI [21]: > 100 µM | TGI [22]: > 100 µM | TGI [23]: > 69.8 µM | TGI [24]: > 100 µM | TGI [25]: > 100 µM | TGI [26]: > 100 µM | TGI [27]: > 100 µM | TGI [28]: 37.1 µM | TGI [29]: 48.9 µM | TGI [30]: > 48.2 µM | TGI [31]: > 100 µM | TGI [32]: > 100 µM | TGI [33]: > 100 µM | TGI [34]: > 100 µM | TGI [35]: > 79.1 µM | TGI [36]: > 100 µM | TGI [37]: > 100 µM | TGI [38]: > 30.3 µM | TGI [39]: > 100 µM | TGI [40]: > 100 µM | TGI [41]: > 60 µM | TGI [42]: > 100 µM | TGI [43]: > 100 µM | TGI [44]: 96.9 µM | TGI [45]: > 55.4 µM | TGI [46]: > 51.1 µM | TGI [47]: > 96.2 µM | TGI [48]: > 100 µM | TGI [49]: > 100 µM | TGI [50]: > 34.9 µM | TGI [51]: > 100 µM | TGI [52]: > 100 µM | TGI [53]: > 84 µM | TGI [54]: > 100 µM | TGI [55]: > 72.4 µM | TGI [56]: > 100 µM | TGI [57]: 81.8 µM | TGI [58]: > 100 µM | TGI [59]: > 100 µM

CN(C)CCNC(=O)c1cccc2c(NCCN(C)C)c3ccccc3nc12
TGI [1]: 25.7 µM | TGI [2]: 28.6 µM | TGI [3]: 11.1 µM | TGI [4]: 12.8 µM | TGI [5]: 12.7 µM | TGI [6]: 3.73 µM | TGI [7]: 18.6 µM | TGI [8]: 8.57 µM | TGI [9]: 11.8 µM | TGI [10]: 17.6 µM | TGI [11]: > 23.4 µM | TGI [12]: 17.8 µM | TGI [13]: 7.23 µM | TGI [15]: 4.75 µM | TGI [16]: > 83.6 µM | TGI [17]: 13.6 µM | TGI [18]: 3.66 µM | TGI [19]: > 100 µM | TGI [20]: 9.19 µM | TGI [21]: 4.74 µM | TGI [22]: 6.05 µM | TGI [23]: 3.9 µM | TGI [24]: 26.3 µM | TGI [25]: 3.91 µM | TGI [26]: 7.63 µM | TGI [27]: 21.9 µM | TGI [28]: 28.2 µM | TGI [29]: 7.92 µM | TGI [30]: 5.34 µM | TGI [31]: 8.68 µM | TGI [32]: 8.03 µM | TGI [33]: 8.72 µM | TGI [34]: 17.3 µM | TGI [35]: 3.45 µM | TGI [36]: 8.29 µM | TGI [37]: 7.03 µM | TGI [38]: 6.29 µM | TGI [39]: 14.2 µM | TGI [40]: 7.58 µM | TGI [41]: 6.65 µM | TGI [42]: 6.86 µM | TGI [43]: 18.4 µM | TGI [44]: 11.2 µM | TGI [45]: 12.4 µM | TGI [46]: 10.8 µM | TGI [47]: 15.4 µM | TGI [48]: 8.18 µM | TGI [49]: 9.59 µM | TGI [50]: 2.97 µM | TGI [51]: 40.2 µM | TGI [52]: 4.58 µM | TGI [53]: 17.6 µM | TGI [54]: 24.7 µM | TGI [55]: 11.3 µM | TGI [56]: 13.2 µM | TGI [57]: 11.1 µM | TGI [58]: 7.34 µM | TGI [59]: 5.94 µM
